The source of these data is article PMC7689250, “Synthetic Peptide Libraries Designed From a Minimal Alpha-Helical Domain of AS-48-Bacteriocin Homologs Exhibit Potent Antibacterial Activity” (Frontiers in Microbiology, 2020).

SMILES strings stand for the structures. Where two headings read alike, the source gives them in different places. Residues, ends and D or L forms follow the SMILES beside them.

The test system of one data set is P. aeruginosa (PAO1). In kind it is cell-based, Pseudomonas aeruginosa. The conditions noted are these: for MBC: PAO1; for MIC: PAO1, 16 h. The protocol:
(§1) Peptides were screened against Escherichia coli (BL21), Streptococcus pyogenes (M1T1 5448, hereby referred to as M1), Pseudomonas aeruginosa (PAO1), and Staphylococcus aureus (USA300). Overnight bacterial cultures were grown in optimal media for each species: Luria-Bertani (LB) broth for E. coli, P. aeruginosa, and S. aureus, and Todd-Hewitt (TH) broth for S. pyogenes. Cultures were pelleted and re-suspended in Mueller-Hinton (MH) broth for peptide screens or minimal inhibitory concentration (MIC) assays, with 1 × 10^6 CFU/mL bacteria added per well ([Wiegand et al., 2008]). MICs for each parent peptide were identified against each bacterial strain as previously described ([Fields et al., 2018]). Members of each peptide library were screened against each bacterial strain at half of the MIC of the corresponding parent peptide to identify library members with increased antimicrobial activity relative to the parent peptide. […] Minimal bactericidal concentrations (MBCs) were determined following the respective MIC assays by plating aliquots from wells corresponding to each peptide concentration from the 96-well plate used for the MIC on species-appropriate agar. Plates were incubated at 37°C overnight, and MBCs were identified as the lowest concentrations of peptide at which no colonies were obtained. A Synergy H1 Microplate Reader (BioTek, Winooski, VT, United States) was used to determine the MICs and identify peptides with greater antimicrobial activity than the corresponding parent peptide by measuring OD 600 of the bacterial cultures in 96-well microtiter plates.

For another data set, the system named is S. aureus (USA300). In kind it is cell-based, Staphylococcus aureus. The conditions noted are these: for MBC: USA300; for MIC: USA300, 16 h. The protocol: as §1
Another data set has as its system S. pyogenes (M1). In kind it is cell-based, Streptococcus pyogenes. Particulars: for MBC: M1. The protocol:
as §1

Another data set concerns E. coli (BL21). In kind it is cell-based, Escherichia coli. Particulars: for MBC: BL21; for MIC: BL21, 16 h. The protocol:
as §1

The subject of a further data set is sheep erythrocytes. In kind it is cell-based. Particulars: red cells of sheep, 1 h. The protocol:
To determine if peptide variants were hemolytic, fresh defibrinated whole sheep blood (Hardy Diagnostics) was washed three times in cold PBS, and washed blood was diluted 1:25 in PBS. Treatments were applied at a 1:10 ratio of sample:blood, where the sample was either 10% Triton, PBS, or a specific peptide concentration corresponding to concentrations used in the MIC assays. Treatments were incubated with the blood for 1 h at 37°C. Following incubation, samples were centrifuged at […] for 10 min at 4°C, and the absorbance of the supernatants at 450 nm was measured on the Synergy H1 Microplate Reader to measure the release of hemoglobin. Percent hemolysis was quantified by normalizing to the negative and positive controls.

On to `CC[C@H](C)[C@H](NC(=O)[C@H](Cc1ccc(O)cc1)NC(=O)[C@H](CCCCN)NC(=O)[C@H](CCCCN)NC(=O)[C@H](CC(C)C)NC(=O)[C@H](CCC(=O)O)NC(=O)[C@H](CCCCN)NC(=O)[C@H](Cc1c[nH]c2ccccc12)NC(=O)[C@@H](NC(=O)[C@H](CCCNC(=N)N)NC(=O)[C@H](CCC(=O)O)NC(=O)[C@H](CO)NC(=O)CNC(=O)[C@H](C)N)[C@@H](C)CC)C(=O)N[C@@H](CCCCN)C(=O)N[C@@H](CCCCN)C(=O)NCC(=O)N[C@@H](CCCCN)C(=O)N[C@@H](CCCCN)C(=O)N[C@H](C(=O)N[C@H](C(=O)N[C@@H](CCCNC(=N)N)C(=O)N[C@@H](C)C(=O)N[C@@H](C)C(=O)N[C@@H](Cc1c[nH]c2ccccc12)C(=O)O)[C@@H](C)CC)C(C)C` [Syn-enterocin-24] (H-AGSERIWKELKKYIKKGKKVIRAAW-OH; N-terminus and C-terminus assumed), for which the minimal bactericidal concentration (MBC) in the data set with P. aeruginosa (PAO1) was 16 µM; with S. aureus (USA300), above 128 µM; with S. pyogenes (M1), 16 µM; with E. coli (BL21) it was 2 µM. Moreover, the MIC in the data set on P. aeruginosa (PAO1) was found to be 8 µM; with S. aureus (USA300) it was 64 µM; with S. pyogenes (M1) (M1, 16 h) it was 16 µM; in the data set on E. coli (BL21) it was 2 µM. Besides, in the data set with sheep erythrocytes, the “Percent Hemolysis” value is listed as 10.5%.

For `CC[C@H](C)[C@H](NC(=O)[C@H](CCCCN)NC(=O)[C@H](CCCCN)NC(=O)CNC(=O)[C@H](CCC(=O)O)NC(=O)[C@H](CC(N)=O)NC(=O)[C@@H](NC(=O)[C@@H](NC(=O)[C@H](CCCCN)NC(=O)[C@H](CCCCN)NC(=O)[C@H](CC(C)C)NC(=O)[C@H](CCCNC(=N)N)NC(=O)[C@H](CC(N)=O)NC(=O)[C@H](Cc1ccccc1)NC(=O)[C@@H](NC(=O)[C@H](CCCCN)NC(=O)[C@H](CCC(=O)O)NC(=O)[C@@H](NC(=O)[C@H](Cc1c[nH]c2ccccc12)NC(=O)[C@H](C)N)[C@@H](C)O)[C@@H](C)CC)[C@@H](C)O)[C@@H](C)CC)C(=O)N[C@@H](C)C(=O)N[C@@H](CCCCN)C(=O)N[C@@H](CCCNC(=N)N)C(=O)N[C@@H](C)C(=O)N[C@@H](Cc1c[nH]c2ccccc12)C(=O)O` [Syn-larvacin-40] (H-AWTEKIFNRLKKTINEGKKIAKRAW-OH; N-terminus and C-terminus assumed), the minimal bactericidal concentration (MBC) amounted to 16 µM in the data set on P. aeruginosa (PAO1), 4 µM in the data set with S. aureus (USA300), 4 µM in the data set with S. pyogenes (M1) and 2 µM in the data set with E. coli (BL21). Also, the MIC worked out at 16 µM in the data set with P. aeruginosa (PAO1); 4 µM in the data set on S. aureus (USA300); 0.25 µM in the data set with S. pyogenes (M1) (M1, 16 h); 2 µM in the data set on E. coli (BL21). In addition, the “Percent Hemolysis” value in the data set with sheep erythrocytes is recorded as 17.5%.

With `CC[C@H](C)[C@H](NC(=O)[C@H](CCCCN)NC(=O)[C@H](CCCCN)NC(=O)[C@H](CCCCN)NC(=O)[C@H](CC(C)C)NC(=O)[C@H](Cc1ccccc1)NC(=O)[C@H](CCC(N)=O)NC(=O)[C@H](CCCNC(=N)N)NC(=O)[C@@H](NC(=O)[C@@H](NC(=O)[C@H](CCC(=O)O)NC(=O)[C@H](CCCCN)NC(=O)CNC(=O)[C@H](C)N)[C@@H](C)O)[C@@H](C)CC)C(=O)N[C@@H](CCC(N)=O)C(=O)N[C@@H](CCC(=O)O)C(=O)N[C@@H](Cc1c[nH]c2ccccc12)C(=O)N[C@@H](CCCCN)C(=O)N[C@@H](CCCCN)C(=O)N[C@@H](CCCNC(=N)N)C(=O)N[C@@H](C)C(=O)N[C@H](C(=O)N[C@H](C(=O)N[C@@H](C)C(=O)N[C@@H](Cc1c[nH]c2ccccc12)C(=O)O)[C@@H](C)CC)[C@@H](C)O` [Syn-larvacin-44] (H-AGKETIRQFLKKKIQEWKKRATIAW-OH; N-terminus and C-terminus assumed), the MBC in the data set with P. aeruginosa (PAO1) turned out to be 32 µM; with S. aureus (USA300) it was 32 µM; in the data set with S. pyogenes (M1), 0.5 µM; in the data set on E. coli (BL21), 1 µM. Besides, the MIC came to 16 µM in the data set with P. aeruginosa (PAO1); 32 µM in the data set with S. aureus (USA300); 0.5 µM in the data set with S. pyogenes (M1) (M1, 16 h); 0.5 µM with E. coli (BL21). The “Percent Hemolysis” value with sheep erythrocytes was 20.9%.

`CC[C@H](C)[C@H](NC(=O)[C@H](CCCCN)NC(=O)[C@H](CCCCN)NC(=O)[C@H](CCCCN)NC(=O)[C@H](CC(C)C)NC(=O)[C@H](CCCNC(=N)N)NC(=O)[C@H](CCC(N)=O)NC(=O)[C@H](Cc1ccccc1)NC(=O)[C@@H](NC(=O)[C@@H](NC(=O)[C@H](CCC(=O)O)NC(=O)[C@H](CCCCN)NC(=O)CNC(=O)[C@H](C)N)[C@@H](C)O)[C@@H](C)CC)C(=O)N[C@@H](CCC(N)=O)C(=O)N[C@@H](CCC(=O)O)C(=O)N[C@@H](CCCCN)C(=O)NCC(=O)N[C@@H](CCCCN)C(=O)N[C@@H](CCCNC(=N)N)C(=O)N[C@@H](C)C(=O)N[C@H](C(=O)N[C@H](C(=O)N[C@@H](Cc1c[nH]c2ccccc12)C(=O)N[C@@H](Cc1c[nH]c2ccccc12)C(=O)O)[C@@H](C)CC)[C@@H](C)O` [Syn-larvacin-67] (H-AGKETIFQRLKKKIQEKGKRATIWW-OH; N-terminus and C-terminus assumed): the MBC came to 32 µM with P. aeruginosa (PAO1), 64 µM in the data set on S. aureus (USA300), 0.25 µM in the data set with S. pyogenes (M1) and 4 µM in the data set with E. coli (BL21). In addition, the MIC in the data set with P. aeruginosa (PAO1) stood at 16 µM; in the data set with S. aureus (USA300) it was 64 µM; in the data set with S. pyogenes (M1) (M1, 16 h), 0.25 µM; with E. coli (BL21), 4 µM. Moreover, the “Percent Hemolysis” value in the data set with sheep erythrocytes was 16.3%.

With `CC[C@H](C)[C@H](NC(=O)[C@H](CCCNC(=N)N)NC(=O)[C@H](C)NC(=O)[C@H](CCCCN)NC(=O)[C@H](CCCCN)NC(=O)CNC(=O)[C@H](Cc1ccccc1)NC(=O)[C@H](CCCCN)NC(=O)[C@H](CCCNC(=N)N)NC(=O)[C@H](CC(C)C)NC(=O)[C@H](CCC(=O)O)NC(=O)[C@H](CCC(=O)O)NC(=O)[C@H](CCCCN)NC(=O)[C@H](CC(C)C)NC(=O)[C@H](Cc1ccc(O)cc1)NC(=O)[C@H](CC(C)C)NC(=O)[C@@H](NC(=O)[C@H](CC(C)C)NC(=O)[C@H](C)NC(=O)[C@H](CCC(N)=O)NC(=O)[C@H](CCCNC(=N)N)NC(=O)CNC(=O)[C@@H](N)Cc1c[nH]c2ccccc12)[C@@H](C)O)C(=O)N[C@@H](C)C(=O)N[C@@H](Cc1c[nH]c2ccccc12)C(=O)O` [Syn-xiamencin-13] (H-WGRQALTLYLKEELRKFGKKARIAW-OH; N-terminus and C-terminus assumed), the minimal bactericidal concentration (MBC) in the data set on P. aeruginosa (PAO1) was above 128 µM; in the data set with S. aureus (USA300), above 128 µM; in the data set on S. pyogenes (M1), 0.25 µM; in the data set with E. coli (BL21) it was 32 µM. The MIC in the data set on P. aeruginosa (PAO1) is above 128 µM; in the data set with S. aureus (USA300), above 128 µM; in the data set with S. pyogenes (M1) (S. pyogenes M1), 0.25 µM; with E. coli (BL21), 16 µM.

With `CC[C@H](C)[C@H](NC(=O)[C@H](CCCCN)NC(=O)CNC(=O)[C@H](Cc1ccccc1)NC(=O)[C@H](CCCCN)NC(=O)[C@H](CCCNC(=N)N)NC(=O)[C@H](CC(C)C)NC(=O)[C@H](Cc1ccc(O)cc1)NC(=O)[C@H](CCC(=O)O)NC(=O)[C@H](CC(C)C)NC(=O)[C@H](CC(C)C)NC(=O)[C@H](CCC(=O)O)NC(=O)[C@H](CCCCN)NC(=O)[C@@H](NC(=O)[C@H](CC(C)C)NC(=O)[C@H](CCCNC(=N)N)NC(=O)[C@H](CCC(N)=O)NC(=O)[C@H](C)NC(=O)CNC(=O)[C@@H](N)Cc1c[nH]c2ccccc12)[C@@H](C)O)C(=O)N[C@@H](C)C(=O)N[C@@H](CCCNC(=N)N)C(=O)N[C@@H](CCCCN)C(=O)N[C@@H](C)C(=O)N[C@@H](Cc1c[nH]c2ccccc12)C(=O)O` [Syn-xiamencin-15] (H-WGAQRLTKELLEYLRKFGKIARKAW-OH; N-terminus and C-terminus assumed), the minimal bactericidal concentration (MBC) in the data set on P. aeruginosa (PAO1) was above 128 µM; with S. aureus (USA300), 128 µM; in the data set with S. pyogenes (M1) it was 1 µM; in the data set on E. coli (BL21), 2 µM. The MIC was above 128 µM with P. aeruginosa (PAO1); 64 µM in the data set on S. aureus (USA300); 1 µM in the data set with S. pyogenes (M1) (M1, 16 h); 2 µM in the data set on E. coli (BL21).

As usually defined, the MBC is the smallest concentration meeting the test's criterion for killing. For orientation: MIC means the least concentration at which growth counts as inhibited.
